According to EP4722365A1, “DOUBLE-STRANDED NUCLEOTIDE COMPOUND FOR METABOLIC DISEASES AND USE THEREOF” (Visirna Therapeutics (Suzhou) Co., Ltd., priority 2023, dated 2024):

Experiments:
[1] = test system: DGAT2; test: In-vitro inhibitory activity test on target gene DGAT2 in Huh7 cells (siRNA transfection, mRNA by qPCR); assay type: cell-based, human; conditions: Table 3.3
Protocol: The test compound was prepared into a 20 µM mother liquor with PBS.
Huh7 cells. Huh7 cells were cultured in DMEM medium (Gibco article number 11965-092) containing 10% fetal bovine serum (FBS, ExCell Bio article number FSP500), 1% glutamine (GlutaMAX, Gibco article number 35050061), 1% NEAA (gibco article number 11140050), and 1% penicillin-streptomycin (HyClone article number SV30010).
Huh7 cells (2 × 10^4 cells/well) were inoculated into a 96-well plate, and siRNA was transfected into the cells while plating. […] At the same time, a compound-free control group containing RNAiMAX was set up.
24 hrs after transfection, the medium was removed and the cells were collected for RNA extraction. Total RNA was extracted by using RNeasy® 96 Kit (QIAGEN-74182) according to the instructions for use of the kit. cDNA was synthesized by using FastKing RT Kit (with gDNase) (Tiangen-KR116-02) according to the instructions.
The target cDNA was detected by qPCR, and GAPDH cDNA as an internal control was detected in parallel. 8 µL of prepared PCR reaction solution and 2 µL of sample cDNA were added into a 384 well plate. […]
The expression level of the target gene mRNA in each sample was calculated by ΔΔCt relative quantitative method. […]
GraphPad Prism software was used for plotting and analysis, and the inhibition rate was expressed as mean ± SD.

[2] = test system: DGAT2; test: Inhibition rate on target gene DGAT2 mRNA in primary human hepatocytes (PHHs), free uptake; assay type: cell-based
Protocol: The test compound was prepared into a 100 µM/200 µM mother liquor with PBS.
Human hepatocytes (PHHs). PHHs were revived and cultured in InvitroGRO CP medium (BIOIVT article number S0331) containing 10% fetal bovine serum (FBS, Gibco article number 10091148) and 1% penicillin-streptomycin (PS, HyClone article number SV30010).
PHHs (5.4 × 10^4 cells/well) were inoculated into a 96-well plate, and siRNA was added into the cell while plating. The compound entered the cells through free uptake. […] concentration points (100 nM, 20 nM, 4 nM, 0.8 nM, 0.16 nM, 0.032 nM, and 0.0064 nM) were set for siRNA test, and 2 wells were measured in parallel. At the same time, a compound-free control group containing PBS was set up. The cells were cultured in an incubator at 37°C with 5% CO2.
48 hrs later, the medium was removed and the cells were collected for RNA extraction. Total RNA was extracted by using RNeasy® 96 Kit (QIAGEN-74182) according to the instructions for use of the kit. cDNA was synthesized by using HiScript III RT SuperMix for qPCR (+gDNA wiper) (Vazyme article number R323-01) following the instructions.
The target gen cDNA was detected by qPCR, and the internal reference gene GAPDH cDNA was also detected. 8 µL of prepared PCR reaction solution and 2 µL of sample cDNA were added into a 384 well plate. […]

[3] = test system: DGAT2; test: Inhibitory activity of dS319 on the target gene DGAT2 in non-naive Cynomolgus macaque (Example 11); assay type: in vivo; conditions: for Average inhibition rate, %: 3mpk subcutaneous on days 1 and 29, liver
Protocol: In-vivo experiment: The in-vivo experimental designs for subcutaneous injection in non-naive Cynomolgus macaque, the administration and the sample collection method were shown in the table below. The day of administration to non-naive Cynomolgus macaque was defined as day 1, the day before it was day 0, the day after it was day 2, and so on. Each group had 2 animals. On days 1 and 29, the animals were injected subcutaneously with the solvent or 0.5 mL/kg of the test compound.
On day 0 (0 h) before administration by SC, and days 7, 29, 56 and 99 after administration, the liver sample was collected. Collection method: The animals was fasted for 12-16 hrs before sample collection. Collection of liver biopsy tissue: The collection process would be operated and recorded according to the SOP of the research institution.

dS319: sense (invAb)*acaccauaGfAfCfuauuugcuua[L96]; anti-sense Vpu*Af*a*GfcAfaauagUfcUfaUfgGfuGf* u
IC50 [1]: 0.0163 nM | IC50 [2]: 0.0623 nM | Average inhibition rate, % ([3]; D7): 84.9% | Average inhibition rate, % ([3]; D28): 93.2% | Average inhibition rate, % ([3]; D56): 89.4% | Average inhibition rate, % ([3]; D99): 88% | inhibitory activity on the target gene DGAT2 ([3]; conclusion in words, non-naive Cynomolgus macaque): long-term inhibitory activity
